From patent US9981901B2, “IRE-1α inhibitors” (FOSUN ORINOVE PHARMATECH, INC., priority 2007, dated 2018)

Columns and labels:
[1] = test system: RPMI-8226 multiple myeloma cells; assay: Proliferation of multiple myeloma cells (CellTiter-Glo); format: cell-based, human; details: RPMI8226, 24 hours, 100 μM to 0 μM
Method: FIG. 5. Graph showing inhibition of proliferation of multiple myeloma cells by IRE-1α inhibitor 11-28 (Example 11). RPMI-8226 multiple myeloma cells were seeded at 20,000 cells per well in RPMI culture medium containing 1% FBS and the required antibiotics. The plate was incubated overnight at 37° C., 95% air, 5% CO2. The following day, compound 11-28 or medium alone was added to wells, resulting in a final volume of 100 μl per well. The compound concentration ranged from 100 μM to 0 μM, with compounds diluted by a factor of 4. After addition of compound, the plate was incubated at 37° C., 95% air, 5% CO2 for 24 hours. Cell proliferation was measured using the CellTiter-Glo assay (Promega), following the manufacturer's instructions.
Proliferation assays using myeloma cell lines (U266, RPMI8226 and MM.1s) are used to determine ED50. Compounds are used as single agents and in combination with other chemotherapeutic drugs.

[2] = test system: human myeloma RPMI8226 tumor xenografts; assay: RPMI8226 xenograft efficacy model; format: in vivo, mouse; details: SCID mice, 0.75 mg/kg IV twice weekly
Method: Mice are monitored for tumor growth, regression and general health. Tumors are collected and characterized by immunohistochemistry and/or FACS analysis. Tumor growth is measured by calipers, ultrasound, or by abdominal lavage. Biomarkers in the blood or tumor can evaluated (primarily XBP-1 splicing).

[3] = test system: phosphorylated IRE-1α and XBP1-splicing in RPMI8226 cells; assay: Western blot and RT-PCR of bortezomib-treated RPMI8226 cells; format: cell-based, human; details: 24 hour treatment
primary murine B cells = assay: IgM secretion after LPS stimulation of primary B cells; format: cell-based, mouse; details: added at beginning of stimulation and again at 24 hours; all doses down to 100 nM
Method: FIG. 9. Inhibition of IgM secretion after LPS stimulation of primary murine B cells with selected IRE-1α inhibitors. […] However, compounds had little effect when at added after 40 hours of stimulation; only slight inhibition at the highest dose. Methods were performed as previously described by Iwakoshi et al., Nature 4, 321-29, 2003 for B cell stimulation, plasma cell differentiation and IgM secretion. Primary B cells were Isolated from BALB/c splenocytes using mouse CD43 Microbeads (Miltenyi cat#130-049-801) with 1×10^6 cells per treatment. Purified B cells were stimulated in B Cell Media at a final density of 1×10^6/ml/well in 24-well plates with 20 μg/ml LPS (Sigma cat# L4391). IRE-1α inhibitor compound 17-1 was added at various concentrations (50 μM, 10 μM, 2 μM, 0.4 μM and 0.08 μM) at specified time points (t=0, t=24 hr, t=40 hr, etc.) Cells were incubated for 48 hr at 37° C. At end of the incubation, cells were spun in a plate at 1500 rpm/3 min. Supernatants were collected for quantitation for IgM secretion using a mouse IgM ELISA Kit (Bethyl Labs cat# E90-101). B Cell medium included RPMI+10% FBS supplemented with NEAA, HEPES, NaPyr, PSQ, and β-mercaptoethanol.

COc1cc(-c2cccs2)cc(C=O)c1O [11-28]
inhibition of cell proliferation [1]: inhibits the proliferation

CC(C)C[C@H](NC(=O)[C@H](Cc1ccccc1)NC(=O)c1cnccn1)B(O)O [bortezomib, [(1R)-3-methyl-1-[[(2S)-1-oxo-3-phenyl-2-[(pyrazinylcarbonyl)amino]propyl]amino]butyl] boronic acid]
tumor growth [2]: suppression of tumor growth | XBP1-splicing [3]: increases | levels of phosphorylated IRE-1α [3]: increases

CN(C)C(=O)c1ccc(-c2ccc3c(C=O)c(O)ccc3c2)cc1 [compound 17-1, 4-(5-formyl-6-hydroxynaphthalen-2-yl)-N,N-dimethylbenzamide]
IgM secretion (primary murine B cells): blocked IgM secretion
